Results taken from US20260356830A1, “COMPOUNDS FOR MODULATING RET PROTEIN” (Bristol-Myers Squibb Company, priority 2022, published 2026).

Target: T1, CCDC6-RET (Homo sapiens, UniProt P07949+Q16204+Q96SW2)
T1 construct: CCDC6 (natural N-terminal fusion partner, UniProt Q16204); endogenous in cells; host or cells: TPC-1 (parental, papillary thyroid carcinoma)
Test: Cellular RET degradation, AlphaLISA, TPC-1 cell line
Format: cell-based
Details: for Dmax: TPC1, human, 24 h, read-out: Cell Density TPC-1/CCDC6-RET Ymax %; for DC50: read-out: Cell Density TPC-1/CCDC6-RET DC50, half-maximal degradation concentration, TPC-1 (CCDC6-RET), 24 hrs
Experimental: Cellular RET degradation compound potency was determined using the bead-based luminescent amplification assay-AlphaLISA Surefire Ultra Detection Kit (Perkin-Elmer). The CCDC6-RET fusion expressing papillary thyroid carcinoma (TPC-1) cell line was selected for screening of potential degraders: Parental (TPC-1/CCDC6-RET). Cells were plated in 384 well culture plates (Greiner Bio-One) at 10,000 cells/well in 50 ul/well DMEM (Fisher Scientific) with 2% FBS serum (Gibco). […] Low normalization wells were media only and high normalization wells were cells treated with DMSO only. Treated cell plates were placed in an incubator at 37 °C and 5% CO2 for 24 hrs. At 24 hrs, cell media was removed by a FELIX automated liquid hander (Analytik Jena) and 25 ul of cell lysis buffer (provided in AlphaLisa kit) was added to each well. […] cell lysate were transferred into a 384-well microplate (Perkin Elmer) before addition of 2.5 ul AlphaLISA Acceptor Bead mix. The plates were sealed and kept at room temperature for 1 hr before addition of donor bead mixture. Donor bead addition was performed in the dark and incubated for >1 hr before AlphaLISA luminescence was measured on an Envision plate reader with an Alphascreen aperture at RT (excitation 680 nm, emission 615 nm). RET protein abundance (and therefore degradation) directly corresponds to luminescence intensity.
Intensities were normalized relative to the average values from 16 wells containing media alone (blank-low) and 16 wells containing cells +DMSO (high). % Degradation for each well was determined using the standard equation, where
DC50 (IC50) values for each compound tested are calculated by analyzing plots of % degradation versus compound concentration, and fitting to the standard 4-parameter logistic curve where,
DC50 values are calculated according to the relationship,
Compound replicates were performed in independent assays. Maximum degradation (YMax) was defined as the maximal % degradation value from the 4-parameter logistic equation, as previously described.

T1 sequence (Q16204+P07949 fused): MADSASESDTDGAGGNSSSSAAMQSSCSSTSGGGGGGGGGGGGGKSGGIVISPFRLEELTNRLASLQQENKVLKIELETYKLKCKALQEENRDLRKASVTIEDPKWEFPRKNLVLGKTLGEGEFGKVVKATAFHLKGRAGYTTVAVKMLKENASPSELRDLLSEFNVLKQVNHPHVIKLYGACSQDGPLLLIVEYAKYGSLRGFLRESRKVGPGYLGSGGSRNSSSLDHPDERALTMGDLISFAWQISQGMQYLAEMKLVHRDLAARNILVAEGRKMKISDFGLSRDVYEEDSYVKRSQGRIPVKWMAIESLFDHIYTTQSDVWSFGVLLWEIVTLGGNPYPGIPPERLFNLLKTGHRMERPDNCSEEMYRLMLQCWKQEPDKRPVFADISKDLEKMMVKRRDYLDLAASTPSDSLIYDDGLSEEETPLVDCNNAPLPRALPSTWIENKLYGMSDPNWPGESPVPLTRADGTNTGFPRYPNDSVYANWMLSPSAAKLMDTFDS
T1 sequence (Q96SW2 whole entry, the tested form may be a part): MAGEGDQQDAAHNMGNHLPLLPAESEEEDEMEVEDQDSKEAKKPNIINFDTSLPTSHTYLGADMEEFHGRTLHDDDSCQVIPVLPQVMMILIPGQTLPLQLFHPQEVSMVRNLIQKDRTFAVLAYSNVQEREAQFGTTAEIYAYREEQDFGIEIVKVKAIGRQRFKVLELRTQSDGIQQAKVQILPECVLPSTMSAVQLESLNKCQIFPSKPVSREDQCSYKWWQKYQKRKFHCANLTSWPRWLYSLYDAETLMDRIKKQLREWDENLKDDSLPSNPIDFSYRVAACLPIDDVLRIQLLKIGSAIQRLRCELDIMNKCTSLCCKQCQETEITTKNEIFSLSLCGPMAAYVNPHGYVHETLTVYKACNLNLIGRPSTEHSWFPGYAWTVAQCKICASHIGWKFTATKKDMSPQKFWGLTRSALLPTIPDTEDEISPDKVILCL
T1 sequence (Q16531 whole entry partner, the tested form may be a part): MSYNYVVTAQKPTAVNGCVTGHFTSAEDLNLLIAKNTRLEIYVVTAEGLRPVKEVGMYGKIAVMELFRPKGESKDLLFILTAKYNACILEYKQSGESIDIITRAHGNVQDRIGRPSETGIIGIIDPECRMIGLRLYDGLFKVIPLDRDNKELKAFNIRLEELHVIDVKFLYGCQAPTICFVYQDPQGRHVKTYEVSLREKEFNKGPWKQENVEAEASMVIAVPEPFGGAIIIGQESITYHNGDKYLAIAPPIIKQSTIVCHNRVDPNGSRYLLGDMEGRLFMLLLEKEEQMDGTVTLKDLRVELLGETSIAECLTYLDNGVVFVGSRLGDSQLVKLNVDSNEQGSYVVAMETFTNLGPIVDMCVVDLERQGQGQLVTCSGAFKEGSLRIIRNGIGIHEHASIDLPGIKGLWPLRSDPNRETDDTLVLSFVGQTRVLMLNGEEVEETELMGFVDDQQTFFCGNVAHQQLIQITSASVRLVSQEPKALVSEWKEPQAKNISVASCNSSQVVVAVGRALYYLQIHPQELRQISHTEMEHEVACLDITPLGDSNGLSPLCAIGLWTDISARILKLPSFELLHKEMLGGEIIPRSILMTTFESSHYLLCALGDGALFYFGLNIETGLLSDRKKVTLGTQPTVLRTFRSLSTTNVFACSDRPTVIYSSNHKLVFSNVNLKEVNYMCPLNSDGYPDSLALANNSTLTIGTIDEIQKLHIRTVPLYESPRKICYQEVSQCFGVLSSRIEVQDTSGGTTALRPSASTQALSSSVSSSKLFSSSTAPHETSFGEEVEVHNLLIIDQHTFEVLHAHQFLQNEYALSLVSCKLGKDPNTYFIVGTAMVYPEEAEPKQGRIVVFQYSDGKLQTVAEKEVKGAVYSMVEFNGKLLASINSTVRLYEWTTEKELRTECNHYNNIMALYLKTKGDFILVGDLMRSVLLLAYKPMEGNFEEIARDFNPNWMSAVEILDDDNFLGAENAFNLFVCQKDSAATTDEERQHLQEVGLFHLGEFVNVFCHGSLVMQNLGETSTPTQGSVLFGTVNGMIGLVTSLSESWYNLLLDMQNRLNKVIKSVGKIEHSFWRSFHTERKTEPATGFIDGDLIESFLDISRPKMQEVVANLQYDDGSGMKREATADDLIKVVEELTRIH

Dmax	DC50	SMILES
> 90%	0.002 to 0.01 µM	CCOc1cc(-c2ccc(N3CCC(CN4CCN(C(=O)CCN5CC(c6ccc7c(c6)CN(C6CCC(=O)NC6=O)C7=O)C5)CC4)(NC(=O)c4cc(F)ccc4F)CC3)nc2)c2c(C#N)cnn2c1 (stereo not drawn) [Example 119, N-[1-(5-{3-cyano-6-ethoxypyrazolo[1,5-a]pyridin-4-yl}pyridin-2-yl)-4-{[4-(3-{3-[2-(2,6-dioxopiperidin-3-yl)-1-oxo-2,3-dihydro-1H-isoindol-5-yl]azetidin-1-yl}propanoyl)piperazin-1-yl]methyl}piperidin-4-yl]-2,5-difluorobenzamide]
60 to 90%	0.01 to 0.1 µM	CCOc1cc(-c2ccc(N3CCC(CN4CCN(CCC(=O)N5CCN(c6ccc7c(c6)C(=O)N(C6CCC(=O)NC6=O)C7)CC5)CC4)(NC(=O)c4cc(F)ccc4F)CC3)nc2)c2c(C#N)cnn2c1 (stereo not drawn) [Example 115, N-[1-(5-{3-cyano-6-ethoxypyrazolo[1,5-a]pyridin-4-yl}pyridin-2-yl)-4-{[4-(3-{4-[2-(2,6-dioxopiperidin-3-yl)-3-oxo-2,3-dihydro-1H-isoindol-5-yl]piperazin-1-yl}-3-oxopropyl)piperazin-1-yl]methyl}piperidin-4-yl]-2,5-difluorobenzamide]
> 90%	0.002 to 0.01 µM	CCOc1cc(-c2ccc(N3CCC(COCc4cn(CCN5CCN(c6ccc7c(c6)CN(C6CCC(=O)NC6=O)C7=O)CC5)nn4)(NC(=O)c4cc(F)ccc4F)CC3)nc2)c2c(C#N)cnn2c1 (stereo not drawn) [Example 49, N-[1-[5-(3-cyano-6-ethoxy-pyrazolo[1,5-a]pyridin-4-yl)-2-pyridyl]-4-[[1-[2-[4-[2-(2,6-dioxo-3-piperidyl)-1-oxo-isoindolin-5-yl]piperazin-1-yl]ethyl]triazol-4-yl]methoxymethyl]-4-piperidyl]-2,5-difluoro-benzamide]

Second part, the molecule before the results:

SMILES	Dmax	DC50
CCOc1cc(-c2ccc(N3CCC(CN4CCC5(CC4)CCN(C(=O)CCN4CCC(c6ccc7c(c6)CN(C6CCC(=O)NC6=O)C7=O)CC4)CC5)(NC(=O)c4cc(F)ccc4F)CC3)nc2)c2c(C#N)cnn2c1 (stereo not drawn) [Example 88, N-[1-(5-{3-cyano-6-ethoxypyrazolo[1,5-a]pyridin-4-yl}pyridin-2-yl)-4-{[9-(3-{4-[2-(2,6-dioxopiperidin-3-yl)-1-oxo-2,3-dihydro-1H-isoindol-5-yl]piperidin-1-yl}propanoyl)-3,9-diazaspiro[5.5]undecan-3-yl]methyl}piperidin-4-yl]-2,5-difluorobenzamide]	> 90%	0.01 to 0.1 µM
CCOc1cc(-c2ccc(N3CCC(CN4CCN(C(=O)CCN5CCN(c6ccc7c(c6)CN(C6CCC(=O)NC6=O)C7=O)CC5)CC4)(C(=O)NC(C)C)CC3)nc2)c2c(C#N)cnn2c1 (stereo not drawn) [Example 77, 1-(5-(3-Cyano-6-ethoxypyrazolo[1,5-a]pyridin-4-yl)pyridin-2-yl)-4-((4-(3-(4-(2-(2,6-dioxopiperidin-3-yl)-1-oxoisoindolin-5-yl)piperazin-1-yl)propanoyl)piperazin-1-yl)methyl)-N-isopropylpiperidine-4-carboxamide]	60 to 90%	< 0.002 µM
CCOc1cc(-c2ccc(N3CCC(CN4CCN(CCOCCC(=O)N5CCC(c6ccc7c(c6)C(=O)N(C6CCC(=O)NC6=O)C7)CC5)CC4)(NC(=O)c4cc(F)ccc4F)CC3)nc2)c2c(C#N)cnn2c1 (stereo not drawn) [Example 101, N-[1-(5-{3-cyano-6-ethoxypyrazolo[1,5-a]pyridin-4-yl}pyridin-2-yl)-4-({4-[2-(3-{4-[2-(2,6-dioxopiperidin-3-yl)-3-oxo-2,3-dihydro-1H-isoindol-5-yl]piperidin-1-yl}-3-oxopropoxy)ethyl]piperazin-1-yl}methyl)piperidin-4-yl]-2,5-difluorobenzamide]	> 90%	0.01 to 0.1 µM
